Biological target: T1, Solute carrier family 22 member 20 (Mus musculus, UniProt Q80UJ1)
T1 sequence (Q80UJ1 whole entry): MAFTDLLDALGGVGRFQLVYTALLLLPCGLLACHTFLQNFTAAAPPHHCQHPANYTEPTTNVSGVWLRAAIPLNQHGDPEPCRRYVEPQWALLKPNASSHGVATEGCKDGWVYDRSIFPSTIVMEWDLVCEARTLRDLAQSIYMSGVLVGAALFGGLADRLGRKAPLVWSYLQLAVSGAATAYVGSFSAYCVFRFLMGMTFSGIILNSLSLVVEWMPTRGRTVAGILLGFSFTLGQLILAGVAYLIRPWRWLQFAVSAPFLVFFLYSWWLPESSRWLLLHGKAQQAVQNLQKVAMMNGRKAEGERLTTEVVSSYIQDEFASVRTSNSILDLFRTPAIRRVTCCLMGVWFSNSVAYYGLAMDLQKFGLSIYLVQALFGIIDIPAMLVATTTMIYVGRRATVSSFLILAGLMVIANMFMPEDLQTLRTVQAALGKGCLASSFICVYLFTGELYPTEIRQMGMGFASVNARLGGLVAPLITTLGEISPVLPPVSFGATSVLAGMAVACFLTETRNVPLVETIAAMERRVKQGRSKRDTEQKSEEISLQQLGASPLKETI
Experiment: Activity of mouse Oat6 expressed in Xenopus oocytes assessed as drug uptake
Format: cell-based
Conditions: oocyte

Vmax [pmol/h]	SMILES
0.28	CC(C)Cc1ccc(C(C)C(=O)O)cc1 (stereo not drawn) [IBUPROFEN]
0.9	CCCCC[C@H](O)/C=C/[C@H]1[C@H](O)CC(=O)[C@@H]1C/C=C\CCCC(=O)O [DINOPROSTONE]
40	C[C@]12CC[C@@H]3c4ccc(OS(=O)(=O)O)cc4CC[C@H]3[C@@H]1CCC2=O [ESTRONE SULFURIC ACID]
4.6	Nc1ccc(C(=O)NCC(=O)O)cc1 [AMINOHIPPURIC ACID]

SMILES	Vmax [pmol/h]
C[C@@H]1Cc2c(Cl)cc(C(=O)N[C@@H](Cc3ccccc3)C(=O)O)c(O)c2C(=O)O1 [3R14S-OCHRATOXIN A]	4.8

Biological target: T1, Solute carrier family 22 member 20
Experiment: Inhibition of mouse Oat6-mediated [3H]ES uptake in Xenopus oocytes after 1 hr
Format: cell-based, Oocyte
Conditions: read-out: Ki

Ki [µM]	SMILES
315	CC(C)C(O)C(=O)O (stereo not drawn)
1580	O=C(O)CCCCC(=O)O [ADIPIC ACID]
8.2	CCCCCCC(=O)O [HEPTANOATE]
101	CC(=O)Oc1ccccc1C(=O)O [ASPIRIN]
9	CCCCCC(=O)O [HEXANOATE]
6.6	CCCCC(CC)C(=O)O (stereo not drawn) [2-ETHYLHEXANOIC ACID]
27800	CC(=O)NC(CC(=O)O)C(=O)O (stereo not drawn)
> 30000	O=C(O)/C=C/C(=O)O [FUMARIC ACID]
99	O=C1OC2(c3ccc(O)cc3Oc3cc(O)ccc32)c2ccccc21 [FLUORESCEIN]
279	CCC(=O)O [PROPIONIC ACID]
8.4	CCCN(CCC)S(=O)(=O)c1ccc(C(=O)O)cc1 [PROBENECID]
29	O=C(O)C(=O)Cc1ccccc1 [PHENYLPYRUVATE]
533	CC1(C)S[C@@H]2[C@H](NC(=O)[C@H](C(=O)O)c3ccsc3)C(=O)N2[C@H]1C(=O)O [TICARCILLIN]
452	CC1(C)S[C@@H]2[C@H](NC(=O)Cc3ccccc3)C(=O)N2[C@H]1C(=O)O (single isomer, unassigned) [PENICILLIN G SODIUM]
66	O=C(O)C(=O)Cc1ccc(O)cc1 [4-HYDROXYPHENYLPYRUVIC ACID]
1.1	CC(C)Cc1ccc(C(C)C(=O)O)cc1 (stereo not drawn) [IBUPROFEN]
18	CCCCC[C@H](O)/C=C/[C@H]1[C@H](O)CC(=O)[C@@H]1C/C=C\CCCC(=O)O [DINOPROSTONE]
58	C[C@]12CC[C@@H]3c4ccc(OS(=O)(=O)O)cc4CC[C@H]3[C@@H]1CCC2=O [ESTRONE SULFURIC ACID]
5410	O=C(O)CCCC(=O)O [GLUTARATE]
312	O=C(O)CNC(=O)c1ccccc1 [HIPPURIC ACID]
1330	CC1(C)S[C@@H]2[C@H](NC(=O)C(C(=O)O)c3ccccc3)C(=O)N2[C@H]1C(=O)O (stereo partly drawn) [CARBENICILLIN DISODIUM]
446	Nc1ccc(C(=O)NCC(=O)O)cc1 [AMINOHIPPURIC ACID]
597	CN(Cc1cnc2nc(N)nc(N)c2n1)c1ccc(C(=O)NC(CCC(=O)O)C(=O)O)cc1 (single isomer, unassigned) [METHOTREXATE]
1130	O=C(O)CCCCCCC(=O)O [OCTANEDIOATE]
271	CC(=O)C(=O)O [PYRUVATE]
191	CC(O)CC(=O)O (stereo not drawn) [3-HYDROXYBUTYRIC ACID, (+/-)-]
182	O=C(O)C(O)Cc1ccc(O)cc1 (stereo not drawn)

SMILES	Ki [µM]
CCCC(=O)O [BUTYRIC ACID]	82
O=C(O)c1ccccc1 [BENZOIC ACID]	13.8
CC(C)CC(=O)O [3-METHYLBUTANOIC ACID]	32.3
O=C(O)c1ccccc1O [SALICYLIC ACID]	44
O=C(O)c1ccccc1-c1c2cc(Br)c(=O)c(Br)c-2oc2c(Br)c(O)c(Br)cc12	4.4
C[C@]12CC[C@@H]3c4ccc(OS(=O)(=O)O)cc4CC[C@H]3[C@@H]1CC[C@@H]2OS(=O)(=O)O [ESTRADIOL DISULFATE]	7210
C[C@@H]1Cc2c(Cl)cc(C(=O)N[C@@H](Cc3ccccc3)C(=O)O)c(O)c2C(=O)O1 [3R14S-OCHRATOXIN A]	49

Same assay, conditions: read-out: pKi (converted)

Ki [µM]	SMILES
> 31600	O=C(O)/C=C/C(=O)O [FUMARIC ACID]
182	O=C(O)[C@@H](O)Cc1ccc(O)cc1
316	CC(C)[C@H](O)C(=O)O
191	C[C@@H](O)CC(=O)O [(R)-3-HYDROXYBUTANOATE]
191	C[C@H](O)CC(=O)O
27500	CC(=O)N[C@@H](CC(=O)O)C(=O)O
6.61	CCCC[C@H](CC)C(=O)O
316	CC(C)[C@@H](O)C(=O)O [DEAMINOHYDROXYVALINE]
6.61	CCCC[C@@H](CC)C(=O)O

Reference: ChEMBL document CHEMBL1156472, “Structural variation governs substrate specificity for organic anion transporter (OAT) homologs. Potential remote sensing by OAT family members” (J Biol Chem, 2007)
